What all share (assay type): physicochemical
A short description of data set [1]: Determination of solubility (equilibration in solvent, filtrate by HPLC). To be noted: for Solubility: initial solubility test. The procedure:
Excess free base (free base of Formula I), its phosphate salt (the monophosphoric acid salt of the free base), or another acid salt was equilibrated in solvents for 1 day at 25±0.5° C. The resultant slurry was filtered and the filtrate used for solubility determination by HPLC.
Solubility of the monohydrate of the anhydrous and monohydrate free base was measured in various aqueous media (e.g., pH 6.8 buffer, pH 4.5 buffer, pH 1 buffer), including simulated and actual human fluids.
The human fluids were collected from 12 human subjects.
Solubility studies of the phosphate salt were undertaken in aqueous media and in human fluids at 24 hours.

The nature of data set [2]: Intrinsic dissolution rate. The settings on record: 37° C., disc 50 rpm, 290.2 nm. Here is the method: The intrinsic dissolution rate measurements were carried out in 0.5 cm^2 VanKel punch and die assemblies at a pellet pressure of 2000 pounds. […]
The intrinsic dissolution rate was determined for the phosphate salt in water, pH=6.8 and 0.1N HCl, and for the free base monohydrate in pH=6.8, 4.5 and 0.1N HCl. The measurements were carried out on a VanKel instrument using a Cary UV/VIS spectrophotometer (Table 2).

Data set [3] in a line: Hygroscopicity from DVS sorption/desorption isotherms. To be noted: for weight gain due to water absorption (DVS): listed as hydrochloride salt. Here is the method: Hygroscopicity was measured from sorption/desorption isotherms using Surface Measurement System DVS-1 at 25±0.5° C. Samples were evaluated at various humidities including 75%, 85%, and 95%.
The free base (anhydrous and monohydrate) and its phosphate salt (form A) were subjected to sorption and desorption cycle using a VTI brand instrument. The solids were collected after the experiment and analyzed. […] The DVS plots are shown in FIGS. 4A (free base, anhydrous), 4B (phosphate salt (form A) and 4C (free base, monohydrate). The maximum water uptake for the phosphate salt (form A) was less than 2% (i.e. 0.7%) at 25° C. up to 95% relative humidity (rh) (see Table 9). The maximum water uptake for the monohydrate was less than 1.4% at 25° C. up to 95% RH. The monohydrate with an approximate water content of 3% could not be completely dried during the experiment but the water that could be removed was reversibly reabsorbed. The plateau of existence of the monohydrate form is found to be within 10% and 95% RH with a slight hysteresis at the second desorption cycle.

Counter-ions that a name gives are not always drawn.

The text below walks through data of patent US9067896B2, “Crystalline forms of 3-(2,6-dichloro-3,5-dimethoxy-phenyl)-1-{6-[4-(4-ethyl-piperazin-1-yl) -phenylamino]-pyrimidin-4-yl}-1-methyl-urea and salts thereof” (Novartis AG, priority 2009, dated 2015).

`CCN1CCN(c2ccc(Nc3cc(N(C)C(=O)Nc4c(Cl)c(OC)cc(OC)c4Cl)ncn3)cc2)CC1` [Free base (monohydrate)]: the “Solubility in mg/ml after 24 h” value was 0.003 mg/mL in data set [1] (Fasted State Simulated Intestinal Fluid (FaSSIF), listed as Monohydrate Free Base); 0.459 mg/mL in data set [1] (Fed State Simulated Intestinal Fluid (FeSSIF), listed as Monohydrate Free Base); 0.040 mg/mL in data set [1] (HIF, fed, listed as Monohydrate Free Base); 0.002 mg/mL in data set [1] (Human gastric fluid (HGF), listed as Monohydrate Free Base); 0.019 mg/mL in data set [1] (Human intestinal fluid (HIF) fasted, listed as Monohydrate Free Base); 0.020 mg/mL in data set [1] (Simulated Gastric Fluid (SGF), listed as Monohydrate Free Base). The “Solubility in mg/ml after 24 h” value in data set [1] (pH 1 HCl, listed as Monohydrate Free Base) worked out at 0.103 mg/mL; in data set [1] (ph 4.5 Acetate, listed as Monohydrate Free Base) it was 0.054 mg/mL. For the same compound, the “Intrinsic DR value” came to 0.3132 mg/min/cm^2 in data set [2] (HCl 0.1N), 0.0001 mg/min/cm^2 in data set [2] (pH = 4.5) and 0.0026 mg/min/cm^2 in data set [2] (pH = 6.8). The maximum water uptake entry in data set [3] (25° C. up to 95% relative humidity) is given as “less than 1.4%”.
On to `CCN1CCN(c2ccc(Nc3cc(N(C)C(=O)Nc4c(Cl)c(OC)cc(OC)c4Cl)ncn3)cc2)CC1` [Hydrochloride Salt], for which the “Solubility in mg/ml after 24 h” value in data set [1] (Fasted State Simulated Intestinal Fluid (FaSSIF)) is 0.003 mg/mL; in data set [1] (Fed State Simulated Intestinal Fluid (FeSSIF)) it was 0.248 mg/mL; in data set [1] (HIF, fed), 0.0109 mg/mL; in data set [1] (Human gastric fluid (HGF)) it was 0.0348 mg/mL; in data set [1] (Human intestinal fluid (HIF) fasted), 0.0154 mg/mL; in data set [1] (Simulated Gastric Fluid (SGF)), 0.073 mg/mL. For the same compound, the “Solubility in mg/ml after 24 h” value in data set [1] (pH 1 HCl) is 0.075 mg/mL; in data set [1] (ph 4.5 Acetate), 0.822 mg/mL. Besides, the results for the “weight gain due to water absorption (DVS)” value in data set [3] (75% RH) and in data set [3] (95% RH) were “about 4.1%” and “about 16.9%”, respectively. Moreover, in data set [3] (listed as hydrochloride), the “hygroscopicity (in words)” value is listed as “hygroscopic”.
For the compound Malonate, the “weight gain by DVS” value in data set [3] (over the humidities tested (75%, 85%, 95% RH)) is given as “about 10%”.
By Solubility is commonly meant how much of the substance goes into solution per volume. Read a low Solubility as little dissolved substance. As for Methanesulfonate, the “Solubility” value in data set [1] (Water) is 870 µg/mL; in data set [1] (pH3 Buffer) it was 3 µg/mL.
